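Cells were grown in 96-well plates and exposed to each compound for 48 hours at five concentrations; endpoints were interpolated linearly between bracketing concentrations, or set to the highest concentration if not reached. Here, GI50 denotes the concentration required for 50% inhibition of growth.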 Activity calls are given as the source filed them. Rule as the data show it: active = GI50 up to about 1.1 µM and inactive = higher.
How the values were obtained:
Experiment in all cases: inhibition of tumour cell growth, NCI panel, 48 h
[1] = system: LOX IMVI
[2] = system: UO-31
[3] = system: SNB-75
[4] = system: KM12
[5] = system: UACC-62
[6] = system: HCT-15
[7] = system: MCF7
[8] = system: OVCAR-4
[9] = system: A498
[10] = system: NCI/ADR-RES
[11] = system: SF-268
[12] = system: DU-145
[13] = system: NCI-H460
[14] = system: T47D
[15] = system: SNB-19
[16] = system: HL-60
[17] = system: SR

| SMILES | GI50 [1] | GI50 [2] | GI50 [3] | GI50 [4] | GI50 [5] | GI50 [6] | GI50 [7] | GI50 [8] | GI50 [9] | GI50 [10] | GI50 [11] | GI50 [12] | GI50 [13] | GI50 [14] | GI50 [15] | GI50 [16] | GI50 [17] |
| --- | --- | --- | --- | --- | --- | --- | --- | --- | --- | --- | --- | --- | --- | --- | --- | --- | --- |
| C=C1C(=O)O[C@@H]2/C=C(C)/C=C\[C@@H]3O[C@@]3(C)C[C@@H](O)C12 (stereo not given in full) | 7.1 µM (inactive) | 12.4 µM (inactive) | 44.3 µM (inactive) | 15.5 µM (inactive) | 12.9 µM (inactive) | 6.27 µM | 4.4 µM (inactive) | 16.3 µM (inactive) | 15.8 µM (inactive) | 4.51 µM (inactive) | 26.4 µM (inactive) | 3.63 µM (inactive) | 28.9 µM (inactive) | 7.19 µM (inactive) | 17.5 µM (inactive) | 2.54 µM (inactive) |  |
| C#CCCCC(=C)C[C@@H]1OC(=O)[C@H](C)[C@@H]1O | > 100 µM (inactive) | > 100 µM (inactive) | > 100 µM (inactive) | > 100 µM (inactive) |  | > 100 µM | > 100 µM (inactive) | > 100 µM (inactive) | > 100 µM (inactive) | > 100 µM (inactive) |  | > 100 µM (inactive) | > 100 µM (inactive) | > 100 µM (inactive) | > 100 µM (inactive) | > 100 µM (inactive) |  |
| O=S(=O)(c1ccc(Br)cc1)n1c2ccc(Br)cc2c2nc3ccccc3nc21 | > 100 µM (inactive) | > 100 µM (inactive) | 25.9 µM (inactive) | > 100 µM (inactive) | 38.3 µM (inactive) | > 100 µM |  | 67.9 µM (inactive) | > 100 µM (inactive) | > 100 µM (inactive) | 85.9 µM (inactive) | > 100 µM (inactive) | > 100 µM (inactive) | 61.8 µM (inactive) | 49.3 µM (inactive) |  |  |
| C/C=C1\CN(C(=O)OC(C)(C)C)C1C(=O)OC(C)(C)C (stereo not given) | > 100 µM (inactive) | 63.7 µM (inactive) |  |  | > 100 µM (inactive) | > 100 µM | > 100 µM (inactive) | 53.6 µM (inactive) | > 100 µM (inactive) | > 100 µM (inactive) | > 100 µM (inactive) |  | > 100 µM (inactive) |  | > 100 µM (inactive) | 21.3 µM (inactive) | > 100 µM (inactive) |
| COC1/C=C/C(C)C(C(C)C(OC)C(C)CCC(=O)C(C)C(C/C=C/N(C)C=O)OC)OC(=O)C=CC2OC2(C)CC(OC)C(OC)C2=CC(=O)O[C@@H](C(C)C(OC)CC(OC)/C=C/C(C)C(O)C1)[C@H]2O (stereo not given in full) | 0.002 µM (active) | 0.00308 µM (active) |  | 0.00708 µM (active) | 0.0201 µM (active) | 0.00631 µM | 0.00627 µM (active) | 0.0208 µM (active) | 0.00785 µM (active) | 0.0254 µM (active) | 0.00451 µM (active) | 0.00938 µM (active) | 0.00607 µM (active) |  | 0.0121 µM (active) | 0.0109 µM (active) | 0.012 µM (active) |
| O=C1/C(=C\c2ccc(F)cc2)CCOc2c1ccc1ccccc21 |  | > 55.2 µM (inactive) | 12.4 µM (inactive) | 7.94 µM (inactive) | 37.2 µM (inactive) | 11.2 µM | 10.4 µM (inactive) | 15.3 µM (inactive) | 27.4 µM (inactive) | 16.3 µM (inactive) | 23.4 µM (inactive) | 31 µM (inactive) | 25.1 µM (inactive) | 41.6 µM (inactive) | 17.7 µM (inactive) | 14.9 µM (inactive) |  |
| O=C(CSCC(=O)N/N=C/c1cccs1)N/N=C/c1cccs1 | > 100 µM (inactive) | 48.3 µM (inactive) | > 100 µM (inactive) | > 100 µM (inactive) | > 100 µM (inactive) | > 100 µM | > 100 µM (inactive) | 45.2 µM (inactive) | > 100 µM (inactive) | 40 µM (inactive) | 72.9 µM (inactive) | 54.3 µM (inactive) | > 100 µM (inactive) | > 100 µM (inactive) | 56.1 µM (inactive) | > 100 µM (inactive) |  |
| COc1ccccc1NCC(=O)Nn1c(C)nc2ccc(S(=O)(=O)Nc3ccccc3OC)cc2c1=O | > 100 µM (inactive) | > 100 µM (inactive) | > 100 µM (inactive) | > 100 µM (inactive) | 63.4 µM (inactive) | 56.1 µM | 63 µM (inactive) | > 100 µM (inactive) |  | > 100 µM (inactive) | > 100 µM (inactive) | > 100 µM (inactive) | > 100 µM (inactive) |  | > 100 µM (inactive) | 47.1 µM (inactive) | 36.5 µM (inactive) |
| N#Cc1nc(/C=C/c2cccs2)oc1N | > 100 µM (inactive) | 10.4 µM (inactive) | > 100 µM (inactive) | > 100 µM (inactive) | > 100 µM (inactive) | 94.4 µM | 99.1 µM (inactive) |  | > 100 µM (inactive) |  | > 100 µM (inactive) | > 100 µM (inactive) |  |  | > 100 µM (inactive) | 12.6 µM (inactive) | 13.1 µM (inactive) |
| COc1ccn(CC(=O)c2cc3ccccc3[nH]2)c(=O)n1 | > 100 µM (inactive) | > 100 µM (inactive) | > 100 µM (inactive) | > 100 µM (inactive) | > 100 µM (inactive) | > 100 µM | > 100 µM (inactive) | > 100 µM (inactive) | > 100 µM (inactive) | > 100 µM (inactive) | > 100 µM (inactive) | > 100 µM (inactive) | > 100 µM (inactive) | > 100 µM (inactive) | > 100 µM (inactive) | 39.2 µM (inactive) |  |
| COC(=O)c1ccccc1/C=C1\Cc2c(C)cc(C)cc2C1=O | > 100 µM (inactive) | > 100 µM (inactive) | > 100 µM (inactive) | > 100 µM (inactive) | > 100 µM (inactive) | > 100 µM | > 100 µM (inactive) | > 100 µM (inactive) | > 100 µM (inactive) |  | > 100 µM (inactive) |  | > 100 µM (inactive) | > 100 µM (inactive) | > 100 µM (inactive) | > 100 µM (inactive) | > 100 µM (inactive) |
| Cc1c2ccccc2cc2nc3ccccc3n12 |  |  | > 10 µM (inactive) | > 10 µM (inactive) | > 10 µM (inactive) | > 10 µM | > 10 µM (inactive) | > 10 µM (inactive) |  | > 10 µM (inactive) | > 10 µM (inactive) | > 10 µM (inactive) | > 10 µM (inactive) | > 10 µM (inactive) | > 10 µM (inactive) | > 10 µM (inactive) | > 10 µM (inactive) |
| COc1cc(/C=N/n2c(-c3ccccc3)n[nH]c2=O)cc(OC)c1OC | 3.22 µM (inactive) | 5.71 µM (inactive) | 2.48 µM (inactive) | 0.425 µM (active) | 2.34 µM (inactive) | 0.708 µM | 1.3 µM (inactive) | > 26.9 µM (inactive) | 3.15 µM (inactive) | 1.44 µM (inactive) | 3.51 µM (inactive) | 5.77 µM (inactive) | 0.826 µM (active) | > 100 µM (inactive) | 6.37 µM (inactive) | 0.518 µM (active) |  |
| CCCCC1Cc2cc(O)ccc2-c2nc3cc(O)ccc3n21.CCCCC1Cc2cc(O)ccc2-c2nc3ccc(O)cc3n21 (stereo not given) | 16.8 µM (inactive) | 13.1 µM (inactive) |  | 19.4 µM (inactive) | 12.8 µM (inactive) | 11 µM | 19.2 µM (inactive) | 7.45 µM (inactive) |  | 18.6 µM (inactive) | 12 µM (inactive) | 28.5 µM (inactive) | 14.8 µM (inactive) | 19.9 µM (inactive) | 11 µM (inactive) | 19.1 µM (inactive) | 12.6 µM (inactive) |
| CC1(c2nc3ccccc3[nH]2)CCC(C(N)=O)C(C)(C)O1 (stereo not given) | > 100 µM (inactive) | > 100 µM (inactive) | > 100 µM (inactive) | > 100 µM (inactive) | > 100 µM (inactive) | > 100 µM | > 100 µM (inactive) | > 100 µM (inactive) |  | > 100 µM (inactive) | > 100 µM (inactive) | > 100 µM (inactive) |  | > 100 µM (inactive) | > 100 µM (inactive) | > 100 µM (inactive) | > 100 µM (inactive) |
| Cc1cccc(Nc2cn(COCc3ccccc3)c(=O)[nH]c2=O)c1 | 56.2 µM (inactive) | > 100 µM (inactive) |  | > 100 µM (inactive) | > 100 µM (inactive) | > 100 µM | 72.6 µM (inactive) | 41.5 µM (inactive) | > 100 µM (inactive) | 14.4 µM (inactive) | 50 µM (inactive) | > 100 µM (inactive) | > 100 µM (inactive) |  | > 100 µM (inactive) | > 100 µM (inactive) | > 100 µM (inactive) |
| Sc1nn2c(Cc3ccccc3)nnc2s1 | > 100 µM (inactive) | > 100 µM (inactive) |  | > 100 µM (inactive) | > 100 µM (inactive) | > 100 µM | > 100 µM (inactive) | > 100 µM (inactive) |  | > 100 µM (inactive) | > 100 µM (inactive) | > 100 µM (inactive) | > 100 µM (inactive) | > 100 µM (inactive) | > 100 µM (inactive) | > 100 µM (inactive) |  |
| COC(=O)/C1=C/c2c([nH]c3ccccc23)/C(C(=O)OC)=C\c2c1[nH]c1ccccc21 [CAULERPIN] | 18.7 µM (inactive) | 7.6 µM (inactive) |  | 35.2 µM (inactive) | 19.9 µM (inactive) | 22 µM | 10.3 µM (inactive) |  | 39.2 µM (inactive) | > 50 µM (inactive) | 19.5 µM (inactive) | 42 µM (inactive) | 13.3 µM (inactive) | 20.2 µM (inactive) | 33.7 µM (inactive) |  |  |
| C/C=C1/C[C@@H](C)[C@@](C)(O)C(=O)OCC2=CC[N+]3([O-])CC[C@@H](OC1=O)[C@@H]23 (stereo not given in full) [SENECIONINE N-OXIDE] | > 100 µM (inactive) | > 100 µM (inactive) | > 100 µM (inactive) | > 100 µM (inactive) | > 100 µM (inactive) | > 100 µM | > 100 µM (inactive) | > 100 µM (inactive) | > 100 µM (inactive) | > 100 µM (inactive) | > 100 µM (inactive) | > 100 µM (inactive) | > 100 µM (inactive) | > 100 µM (inactive) | > 100 µM (inactive) | > 100 µM (inactive) |  |

From ChEMBL document CHEMBL1201862, “PubChem BioAssay data set” (2004)
